How the values were obtained:
[1] = test system: CDK4/6-mediated phosphorylation of Rb; experiment: Western blot of p-Rb/Rb; assay type: cell-based, human; conditions: MDA-MB-231 (2 μM) and OVCAR5 (0.5 μM) cells, 24 h
Protocol: (§1) Cells were washed with PBS, collected with scraper, and then lysed in RIPA buffer containing 1× protease and phosphatase inhibitors for 30 min on ice. The supernatants were collected by centrifugation at full speed for 10 min at 4 °C and subjected to SDS-PAGE followed by immunoblotting as described before. Signals were detected using enhanced chemiluminescence (Millipore, Burlington, MA, USA) and captured by the G: BOX Chemi XRQ gel doc System (Syngene, Cambridge, UK).
(§2) Figure 3 ZC-22 inhibits CDK4/6 and PARP to induce cell-cycle arrest, DNA damage, and apoptosis in breast and ovarian cancer cells. (A,B) MDA-MB-231 cells were treated with 2 μM LY2835219 (LY-2) or ZC-22. […] The levels of CDK4/6 and p-Rb/Rb were determined by Western blot (A). Cell-cycle distribution was analyzed by flow cytometry (B). […] (D,E) Representative pictures (left) and quantification of percentage (right) of γH2A.X-positive cells in MDA-MB-231 cells treated with 2 μM OLA or ZC-22 for 24 h (D), or OVCAR5 cells treated with 0.5 μM OLA or ZC-22 for 24 h (E). Values are means ± SD, n = 3. * p < 0.05, ** p < 0.01, and *** p < 0.001 for comparisons with the DMSO-treated group. p value was calculated using an unpaired t-test. […] Values are means ± SD, n = 3. * p < 0.05, ** p < 0.01, and *** p < 0.001 vs. the DMSO-treated group. p value was calculated using an unpaired t-test. […]

[2] = test system: MDA-MB-231 and OVCAR5 cells; experiment: PI-based cell-cycle analysis by flow cytometry; parameters: species or system human; conditions: MDA-MB-231 (2 μM) and OVCAR5 (0.5 μM) cells; 24 h
Protocol: MDA-MB-231 cells were treated with 2 μM LY2835219 or ZC-22, and OVCAR5 cells were treated with 0.5 μM LY2835219 or ZC-22 for 24 h. After washing in PBS, cells were fixed with 70% ethanol on ice for 2 h, followed by centrifugation at 300× g—for 20 min at 4 °C, and then subjected to a propidium iodide (PI, BD Biosciences, Franklin Lakes, NJ, USA) based cell-cycle analysis according to the manufacturer’s protocols. Cell-cycle distribution was analyzed by flow cytometry. Each experiment was performed in triplicates.
Figure 3 ZC-22 inhibits CDK4/6 and PARP to induce cell-cycle arrest, DNA damage, and apoptosis in breast and ovarian cancer cells. […] The levels of CDK4/6 and p-Rb/Rb were determined by Western blot (A). Cell-cycle distribution was analyzed by flow cytometry (B). […] (D,E) Representative pictures (left) and quantification of percentage (right) of γH2A.X-positive cells in MDA-MB-231 cells treated with 2 μM OLA or ZC-22 for 24 h (D), or OVCAR5 cells treated with 0.5 μM OLA or ZC-22 for 24 h (E). Values are means ± SD, n = 3. * p < 0.05, ** p < 0.01, and *** p < 0.001 for comparisons with the DMSO-treated group. p value was calculated using an unpaired t-test. (F,G) Representative pictures (F) and quantification of percentage (G) of apoptotic cells in MDA-MB-231 cells treated with 2 μM LY-2, OLA, or ZC-22 for 48 h or in OVCAR5 cells treated with 0.5 μM LY-2, OLA or ZC-22 for 48 h. […]

PARP = experiment: Western blot of PAR, a direct product of PARP; assay type: cell-based, human; conditions: MDA-MB-231 (2 μM) and OVCAR5 (0.5 μM) cells, 48 h
Protocol: as §1, §2

With `CCN1CCN(Cc2ccc(Nc3ncc(F)c(-c4cc(F)c5nc(C)n(C(C)C)c5c4)n3)nc2)CC1` [LY2835219, Abemaciclib, reference compound] the “inhibitory activity on CDK4/6-mediated phosphorylation of Rb” value [1] was “equal inhibitory activity”.

`Cc1nc2c(F)cc(-c3nc(Nc4ccc(N5CCN(C(=O)c6cc(Cc7n[nH]c(=O)c8ccccc78)ccc6F)CC5)cn4)ncc3F)cc2n1C(C)C` [ZC-22, 4-(4-fluoro-3-(4-(6-((5-fluoro-4-(4-fluoro-1-isopropyl-2-methyl-1H-benzo[d]imidazole-6-yl)pyrimidin-2-yl)amino)pyridin-3-yl)piperazine-1-carbonyl)benzyl)phthalazin-1(2H)-one] was tested, and the cell-cycle distribution [2] was “dramatically arrested cell cycle at the G1/S check-point”, the PAR expression (PARP) was “effectively inhibited PAR expression” and the “inhibitory activity on CDK4/6-mediated phosphorylation of Rb” value [1] was “equal inhibitory activity”.
